Results reported in US9475817B2 (BRISTOL-MYERS SQUIBB COMPANY, priority 2012, dated 2016).

Experiments:
CK1δ = CK1δ (Homo sapiens (Human), UniProt P48730); assay: CK1δ kinase assay (Caliper LabChip, fluoresceinated peptide substrate); type: biochemical; details: 200 pM CK1δ, 50 μM ATP, 1.5 μM peptide substrate, 22 hours room temperature
Experimental: (§1) CK1ε and CK1δ Kinase Assays
(§2) The kinase assay was performed in V-bottom 384-well plates. […] The reaction was incubated at room temperature for 22 hours and terminated by adding 45 μl of 35 mM EDTA to each sample. […] Compounds were dissolved at 10 mM in dimethylsulfoxide (DMSO) and evaluated at eleven concentrations. IC50 values were derived by non-linear regression analysis.

CK1ε = CK1ε (Homo sapiens (Human), UniProt P49674); assay: CK1ε kinase assay (Caliper LabChip, fluoresceinated peptide substrate); type: biochemical; details: 200 pM CK1ε, 50 μM ATP, 1.5 μM peptide substrate, 22 hours room temperature
CK1ε, sequence (P49674 whole entry): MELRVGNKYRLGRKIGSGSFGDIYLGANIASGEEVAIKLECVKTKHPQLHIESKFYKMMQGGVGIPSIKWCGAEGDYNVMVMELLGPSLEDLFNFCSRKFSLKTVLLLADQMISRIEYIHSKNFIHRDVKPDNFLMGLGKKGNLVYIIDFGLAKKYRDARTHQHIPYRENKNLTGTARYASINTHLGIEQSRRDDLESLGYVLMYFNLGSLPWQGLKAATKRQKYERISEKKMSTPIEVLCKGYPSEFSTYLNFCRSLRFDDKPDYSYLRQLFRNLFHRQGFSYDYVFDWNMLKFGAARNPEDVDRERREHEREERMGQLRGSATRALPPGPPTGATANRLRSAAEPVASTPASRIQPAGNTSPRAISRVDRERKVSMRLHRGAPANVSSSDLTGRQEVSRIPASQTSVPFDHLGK
Experimental: as §1, §2

CK1δ, sequence (P48730 whole entry): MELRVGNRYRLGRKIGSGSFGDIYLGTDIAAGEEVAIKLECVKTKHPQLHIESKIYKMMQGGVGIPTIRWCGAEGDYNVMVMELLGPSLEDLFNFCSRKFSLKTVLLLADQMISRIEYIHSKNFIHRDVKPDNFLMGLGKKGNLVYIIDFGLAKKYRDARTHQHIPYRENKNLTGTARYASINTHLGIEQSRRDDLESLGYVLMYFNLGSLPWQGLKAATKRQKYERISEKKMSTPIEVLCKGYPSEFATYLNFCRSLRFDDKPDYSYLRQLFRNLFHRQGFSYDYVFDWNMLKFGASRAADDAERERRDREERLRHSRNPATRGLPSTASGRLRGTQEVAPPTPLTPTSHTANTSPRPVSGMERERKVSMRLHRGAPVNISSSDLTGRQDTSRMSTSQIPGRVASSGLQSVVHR

| IC50 (CK1δ) [nM] | IC50 (CK1ε) [nM] | SMILES |
| --- | --- | --- |
| 0.9 | 3.3 | Cn1nc(-c2ccc(F)cc2)c(-c2ccc3nc(NC(=O)c4ccncc4)cn3n2)c1N1CCNCC1 [Compound 129, N-(6-(3-(4-Fluorophenyl)-1-methyl-5-(piperazin-1-yl)-1H-pyrazol-4-yl)imidazo[1,2-b]pyridazin-2-yl)isonicotinamide] |
| 0.5 | 17.5 | Cn1nc(-c2ccc(F)cc2)c(-c2ccc3nc(NC(=O)c4ccnc(N5CCOCC5)c4)cn3n2)c1C1CCN(CCCF)CC1 [Compound 162, N-(6-(3-(4-Fluorophenyl)-5-(1-(3-fluoropropyl)piperidin-4-yl)-1-methyl-1H-pyrazol-4-yl)imidazo[1,2-b]pyridazin-2-yl)-2-morpholinoisonicotinamide] |
| 0.3 | 2.2 | Cn1nc(-c2ccc(F)cc2)c(-c2ccc3nc(NC(=O)c4ccnc(F)c4)cn3n2)c1C1CCN(C(=O)c2ccon2)CC1 [Compound 153, 2-fluoro-N-(6-(3-(4-fluorophenyl)-5-(1-(isoxazole-3-carbonyl)piperidin-4-yl)-1-methyl-1H-pyrazol-4-yl)imidazo[1,2-b]pyridazin-2-yl)isonicotinamide] |
| 1.5 | 6.4 | Cn1nc(-c2ccc(F)cc2)c(-c2ccc3nc(NC(=O)c4ccncc4)cn3n2)c1C1CCN(Cc2nccs2)CC1 [Compound 173, N-(6-(3-(4-fluorophenyl)-1-methyl-5-(1-(thiazol-2-ylmethyl)piperidin-4-yl)-1H-pyrazol-4-yl)imidazo[1,2-b]pyridazin-2-yl) isonicotinamide] |
| 17 | 102 | Cn1cc(-c2ccc3nc(NC(=O)c4ccncc4)c(Br)n3n2)c(-c2ccc(F)cc2)n1 [Compound 193, N-(3-Bromo-6-(3-(4-fluorophenyl)-1-methyl-1H-pyrazol-4-yl)imidazo[1,2-b]pyridazin-2-yl)isonicotinamide] |
| 1 | 6.2 | Cn1nc(-c2ccc(F)cc2)c(-c2ccc3nc(NC(=O)c4ccnc(F)c4)cn3n2)c1N1CCN(C[C@@H](O)C(F)(F)F)CC1 [Compound 127, (R)-2-Fluoro-N-(6-(3-(4-fluorophenyl)-1-methyl-5-(4-(3,3,3-trifluoro-2-hydroxypropyl)piperazin-1-yl)-1H-pyrazol-4-yl)imidazo[1,2-b]pyridazin-2-yl)isonicotinamide] |
| 2.6 | 7.4 | Cn1nc(-c2ccc(F)cc2)c(-c2ccc3nc(NC(=O)c4ccncc4)cn3n2)c1C1CCN(Cc2cc[nH]n2)CC1 [Compound 170, N-(6-(5-(1-((1H-pyrazol-3-yl)methyl)piperidin-4-yl)-3-(4-fluorophenyl)-1-methyl-1H-pyrazol-4-yl)imidazo[1,2-b]pyridazin-2-yl) isonicotinamide] |
| 0.4 | 2.6 | Cn1nc(-c2ccc(F)cc2)c(-c2ccc3nc(NC(=O)c4ccnc(F)c4)cn3n2)c1C1CCN(CCC#N)CC1 [Compound 156, N-(6-(5-(1-(2-Cyanoethyl)piperidin-4-yl)-3-(4-fluorophenyl)-1-methyl-1H-pyrazol-4-yl)imidazo[1,2-b]pyridazin-2-yl)-2-fluoroisonicotinamide] |
| 3.6 |  | Cn1nc(-c2ccc(F)cc2)c(-c2ccc3nc(NC(=O)c4ccncc4)cn3n2)c1C1CCN(Cc2cscn2)CC1 [Compound 171, N-(6-(3-(4-fluorophenyl)-1-methyl-5-(1-(thiazol-4-ylmethyl)piperidin-4-yl)-1H-pyrazol-4-yl)imidazo[1,2-b]pyridazin-2-yl) isonicotinamide] |
| 0.5 |  | Cn1nc(-c2ccc(F)cc2)c(-c2ccc3nc(NC(=O)c4ccnc(F)c4)cn3n2)c1N1CCN(C(=O)C2CC2)CC1 [Compound 122, N-(6-(5-(4-(Cyclopropanecarbonyl)piperazin-1-yl)-3-(4-fluorophenyl)-1-methyl-1H-pyrazol-4-yl)imidazo[1,2-b]pyridazin-2-yl)-2-fluoroisonicotinamide] |

The remaining lines, values behind:

| SMILES | IC50 (CK1δ) [nM] | IC50 (CK1ε) [nM] |
| --- | --- | --- |
| Cn1cc(-c2ccc3nc(NC(=O)C4CCCCC4)cn3n2)c(-c2ccc(F)cc2)n1 [Compound 87, N-(6-(3-(4-fluorophenyl)-1-methyl-1H-pyrazol-4-yl)imidazo[1,2-b]pyridazin-2-yl)cyclohexanecarboxamide] |  | 11.3 |
| Cn1cc(C(=O)Nc2cn3nc(-c4cn(C)nc4-c4ccc(F)cc4)ccc3n2)cn1 [Compound 98, N-(6-(3-(4-fluorophenyl)-1-methyl-1H-pyrazol-4-yl)imidazo[1,2-b]pyridazin-2-yl)-1-methyl-1H-pyrazole-4-carboxamide] | 2.6 |  |
| Cn1cc(-c2ccc3nc(NC(=O)c4ccnc(F)c4)cn3n2)c(-c2ccc(F)cc2)n1 [Compound 54, 2-fluoro-N-(6-(3-(4-fluorophenyl)-1-methyl-1H-pyrazol-4-yl)imidazo[1,2-b]pyridazin-2-yl)isonicotinamide] | 4.5 | 14 |
| Cn1cc(-c2ccc3nc(NC(=O)c4ccncc4)cn3n2)c(-c2ccc(F)cc2)n1 [Compound 1, N-(6-(3-(4-Fluorophenyl)-1-methyl-1H-pyrazol-4-yl)imidazo[1,2-b]pyridazin-2-yl)isonicotinamide] | 5.2 | 7.4 |
| Cn1cc(-c2ccc3nc(NC(=O)c4ccc(CCN5CCCC5)nc4)cn3n2)c(-c2ccc(F)cc2)n1 [Compound 72, N-(6-(3-(4-fluorophenyl)-1-methyl-1H-pyrazol-4-yl)imidazo[1,2-b]pyridazin-2-yl)-6-(2-(pyrrolidin-1-yl)ethyl)nicotinamide] | 10 | 27.8 |
| Cn1cc(-c2ccc3nc(NC(=O)c4ccc(C#N)nc4)cn3n2)c(-c2ccc(F)cc2)n1 [Compound 53, 6-cyano-N-(6-(3-(4-fluorophenyl)-1-methyl-1H-pyrazol-4-yl)imidazo[1,2-b]pyridazin-2-yl)nicotinamide] | 5.8 | 21.4 |
| Cn1cc(-c2ccc3nc(NC(=O)c4cncc(O)c4)cn3n2)c(-c2ccc(F)cc2)n1 [Compound 70, N-(6-(3-(4-fluorophenyl)-1-methyl-1H-pyrazol-4-yl)imidazo[1,2-b]pyridazin-2-yl)-5-hydroxynicotinamide] | 2 | 4.7 |
| Cn1nc(-c2ccc(F)cc2)c(-c2ccc3nc(NC(=O)c4ccnc(F)c4)cn3n2)c1N1CCOCC1 [Compound 143, 2-Fluoro-N-(6-(3-(4-fluorophenyl)-1-methyl-5-morpholino-1H-pyrazol-4-yl)imidazo[1,2-b]pyridazin-2-yl)isonicotinamide] | 2 |  |
| Cn1cc(-c2ccc3nc(NC(=O)c4ccno4)cn3n2)c(-c2ccc(F)cc2)n1 [Compound 22, N-(6-(3-(4-fluorophenyl)-1-methyl-1H-pyrazol-4-yl)imidazo[1,2-b]pyridazin-2-yl)isoxazole-5-carboxamide] | 3.7 | 15.2 |
| Cn1cc(-c2ccc3nc(NC(=O)C4CCCC4)cn3n2)c(-c2ccc(F)cc2)n1 [Compound 86, N-(6-(3-(4-fluorophenyl)-1-methyl-1H-pyrazol-4-yl)imidazo[1,2-b]pyridazin-2-yl)cyclopentanecarboxamide] | 5.6 | 15.7 |
| Cn1cc(-c2ccc3nc(NC(=O)C45CCCC(CCC4)C5)cn3n2)c(-c2ccc(F)cc2)n1 [Compound 92, N-(6-(3-(4-fluorophenyl)-1-methyl-1H-pyrazol-4-yl)imidazo[1,2-b]pyridazin-2-yl)bicyclo[3.3.1]nonane-1-carboxamide] | 5.5 | 10.5 |
| Cn1cc(-c2ccc3nc(NC(=O)c4csc(-c5ccc(Cl)cc5)n4)cn3n2)c(-c2ccc(F)cc2)n1 [Compound 11, 2-(4-chlorophenyl)-N-(6-(3-(4-fluorophenyl)-1-methyl-1H-pyrazol-4-yl)imidazo[1,2-b]pyridazin-2-yl)thiazol-4-carboxamide] | 24.6 | 899 |
| COc1ccc(C(=O)Nc2cn3nc(-c4cn(C)nc4-c4ccc(F)cc4)ccc3n2)c(OC)n1 [Compound 75, N-(6-(3-(4-fluorophenyl)-1-methyl-1H-pyrazol-4-yl)imidazo[1,2-b]pyridazin-2-yl)-2,6-dimethoxynicotinamide] | 41 | 363 |
| Cn1cc(-c2ccc3nc(NC(=O)C4CCCCCC4)cn3n2)c(-c2ccc(F)cc2)n1 [Compound 88] | 4.2 | 10.5 |
| Cn1cc(-c2ccc3nc(NC(=O)c4ccnc(C(C)(C)C)c4)cn3n2)c(-c2ccc(F)cc2)n1 [Compound 50, 2-(tert-butyl)-N-(6-(3-(4-fluorophenyl)-1-methyl-1H-pyrazol-4-yl)imidazo[1,2-b]pyridazin-2-yl)isonicotinamide] |  | 99.9 |
| CN1CCC(C(=O)Nc2cn3nc(-c4cn(C)nc4-c4ccc(F)cc4)ccc3n2)CC1 [Compound 90, N-(6-(3-(4-fluorophenyl)-1-methyl-1H-pyrazol-4-yl)imidazo[1,2-b]pyridazin-2-yl)-1-methylpiepridine-4-carboxamide] |  | 135 |
| COc1cc(C(=O)Nc2cn3nc(-c4cn(C)nc4-c4ccc(F)cc4)ccc3n2)nc(OC)n1 [Compound 39, N-(6-(3-(4-fluorophenyl)-1-methyl-1H-pyrazol-4-yl)imidazo[1,2-b]pyridazin-2-yl)-2,6-dimethoxypyrimidine-4-carboxamide] |  | 75.7 |
| Cn1cc(-c2ccc3nc(NC(=O)c4cncc(Cl)c4)cn3n2)c(-c2ccc(F)cc2)n1 [Compound 46, 5-chloro-N-(6-(3-(4-fluorophenyl)-1-methyl-1H-pyrazol-4-yl)imidazo[1,2-b]pyridazin-2-yl)nicotinamide] | 4.1 |  |
| COc1ncccc1C(=O)Nc1cn2nc(-c3cn(C)nc3-c3ccc(F)cc3)ccc2n1 [Compound 77, N-(6-(3-(4-fluorophenyl)-1-methyl-1H-pyrazol-4-yl)imidazo[1,2-b]pyridazin-2-yl)-2-methoxynicotinamide] | 10.6 |  |
